From the supplement of paper PMC11061612

What was measured:
Test in all cases: combination Emax (second highest fraction inhibited in the dose matrix, 72 h); higher = more inhibition; extreme values may be limits of the assay
Hey (Ovarian Carcinoma) = test system: Hey (Ovarian Carcinoma)
Method in brief: (§1)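 Bliss excess equals the observed combination effect minus the expected value EA + EB − EA·EB, where EA and EB are the effects of each agent alone. Combination Emax is the second-highest inhibition within the matrix. Inhibition was scaled from CellTiter-Glo 2.0 luminescence, with 0 set by vehicle wells and 1 by blank wells, after 72 hours of two-drug dosing of cells plated in 1536-well plates.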

[1] = test system: ALL-SIL (T-Lymphoblastic Leukemia)
Method in brief: as §1

[2] = test system: HCC1500 (Breast Carcinoma)
Method in brief: as §1

[3] = test system: DU-145 (Prostate Carcinoma)
Method in brief: as §1

Structure (SMILES): CN(CCO)CC[C@H](CSc1ccccc1)Nc1ccc(S(=O)(=O)NC(=O)c2ccc(N3CCC([C@@H](O)c4ccccc4-c4ccc(Cl)cc4)CC3)cc2)cc1S(=O)(=O)C(F)(F)F [AZD4320] + C1CN(CCC1(C(=O)N[C@@H](CCO)C2=CC=C(C=C2)Cl)N)C3=NC=NC4=C3C=CN4 [Capivasertib] (first compound max 1 µM, 7x7, partner max 3 µM)
- combination Emax (Hey (Ovarian Carcinoma)): 0.106
- combination Emax [1]: 1
- combination Emax [2]: 0.993
- combination Emax [3]: 0.0863

Structure (SMILES): CN(CCO)CC[C@H](CSc1ccccc1)Nc1ccc(S(=O)(=O)NC(=O)c2ccc(N3CCC([C@@H](O)c4ccccc4-c4ccc(Cl)cc4)CC3)cc2)cc1S(=O)(=O)C(F)(F)F [AZD4320] + CC(=O)O[C@H]1C(=O)[C@@]2(C)[C@H]([C@H](OC(=O)c3ccccc3)[C@]3(O)C[C@H](OC(=O)[C@H](O)[C@@H](NC(=O)c4ccccc4)c4ccccc4)C(C)=C1C3(C)C)[C@]1(OC(C)=O)CO[C@@H]1C[C@@H]2O [Paclitaxel] (first compound max 1 µM, 7x7, partner max 3 µM)
- combination Emax [3]: 0.818

Structure (SMILES): CN(CCO)CC[C@H](CSc1ccccc1)Nc1ccc(S(=O)(=O)NC(=O)c2ccc(N3CCC([C@@H](O)c4ccccc4-c4ccc(Cl)cc4)CC3)cc2)cc1S(=O)(=O)C(F)(F)F [AZD4320] + CCN(CCO)CCCOc1ccc2c(Nc3cc(CC(=O)Nc4cccc(F)c4)[nH]n3)ncnc2c1 [AZD2811] (first compound max 1 µM, 7x7, partner max 1 µM)
- combination Emax (Hey (Ovarian Carcinoma)): 0.254
- combination Emax [1]: 1
- combination Emax [2]: 0.997

Structure (SMILES): CN(CCO)CC[C@H](CSc1ccccc1)Nc1ccc(S(=O)(=O)NC(=O)c2ccc(N3CCC([C@@H](O)c4ccccc4-c4ccc(Cl)cc4)CC3)cc2)cc1S(=O)(=O)C(F)(F)F [AZD4320] + C[C@@H]1COCCN1C2=NC(=NC(=C2)C3(CC3)[S@](=N)(=O)C)C4=C5C=CNC5=NC=C4 [AZD6738] (first compound max 1 µM, 7x7, partner max 10 µM)
- combination Emax (Hey (Ovarian Carcinoma)): 0.869
- combination Emax [1]: 1
- combination Emax [2]: 1
- combination Emax [3]: 0.6

Structure (SMILES): CN(CCO)CC[C@H](CSc1ccccc1)Nc1ccc(S(=O)(=O)NC(=O)c2ccc(N3CCC([C@@H](O)c4ccccc4-c4ccc(Cl)cc4)CC3)cc2)cc1S(=O)(=O)C(F)(F)F [AZD4320] + C[C@@H](Nc1cc(F)cc(F)c1)c1cc(C(=O)N(C)C)cc2c(=O)cc(N3CCOCC3)oc12 [AZD8186] (first compound max 1 µM, 7x7, partner max 3 µM)
- combination Emax (Hey (Ovarian Carcinoma)): 0.373
- combination Emax [1]: 1
- combination Emax [2]: 0.992
- combination Emax [3]: 0.227

Structure (SMILES): CN(CCO)CC[C@H](CSc1ccccc1)Nc1ccc(S(=O)(=O)NC(=O)c2ccc(N3CCC([C@@H](O)c4ccccc4-c4ccc(Cl)cc4)CC3)cc2)cc1S(=O)(=O)C(F)(F)F [AZD4320] + Cc1cc2ncnn2cc1Nc1ncc2c(n1)n(C1CCOCC1)c(=O)n2C [AZD7648] (first compound max 1 µM, 7x7, partner max 10 µM)
- combination Emax (Hey (Ovarian Carcinoma)): 0.247
- combination Emax [1]: 1
- combination Emax [2]: 0.998

Structure (SMILES): CN(CCO)CC[C@H](CSc1ccccc1)Nc1ccc(S(=O)(=O)NC(=O)c2ccc(N3CCC([C@@H](O)c4ccccc4-c4ccc(Cl)cc4)CC3)cc2)cc1S(=O)(=O)C(F)(F)F [AZD4320] + Cn1cnc2c(F)c(Nc3ccc(Br)cc3Cl)c(C(=O)NOCCO)cc21 [Selumetinib] (first compound max 1 µM, 7x7, partner max 3 µM)
- combination Emax (Hey (Ovarian Carcinoma)): 0.533
- combination Emax [1]: 1
- combination Emax [2]: 0.998
- combination Emax [3]: 0.255

Structure (SMILES): CN(CCO)CC[C@H](CSc1ccccc1)Nc1ccc(S(=O)(=O)NC(=O)c2ccc(N3CCC([C@@H](O)c4ccccc4-c4ccc(Cl)cc4)CC3)cc2)cc1S(=O)(=O)C(F)(F)F [AZD4320] + Nc1ccn([C@@H]2O[C@H](CO)[C@@H](O)C2(F)F)c(=O)n1 [Gemcitabine] (first compound max 1 µM, 7x7, partner max 0.3 µM)
- combination Emax [3]: 0.485

Structure (SMILES): Cc1c2c(nn1C)CSCc1cc(n(C)n1)CSc1cc(c3ccccc3c1)OCCCc1c(C(=O)O)n(C)c3c-2c(Cl)ccc13 [AZD5991] + Cn1cnc2c(F)c(Nc3ccc(Br)cc3Cl)c(C(=O)NOCCO)cc21 [Selumetinib] (first compound max 1 µM, 7x7, partner max 3 µM)
- combination Emax (Hey (Ovarian Carcinoma)): 0.563
- combination Emax [1]: 1
- combination Emax [2]: 0.41
- combination Emax [3]: 0.221

Structure (SMILES): Cc1cc2ncnn2cc1Nc1ncc2c(n1)n(C1CCOCC1)c(=O)n2C [AZD7648] + C=CCn1c(=O)c2cnc(Nc3ccc(N4CCN(C)CC4)cc3)nc2n1-c1cccc(C(C)(C)O)n1 [AZD1775] (first compound max 10 µM, partner max 1 µM)
- combination Emax (Hey (Ovarian Carcinoma)): 0.613
- combination Emax [1]: 0.867
- combination Emax [2]: 0.424
- combination Emax [3]: 0.289

Structure (SMILES): Cc1cc2ncnn2cc1Nc1ncc2c(n1)n(C1CCOCC1)c(=O)n2C [AZD7648] + CCN(CCO)CCCOc1ccc2c(Nc3cc(CC(=O)Nc4cccc(F)c4)[nH]n3)ncnc2c1 [AZD2811] (first compound max 10 µM, 7x7, partner max 1 µM)
- combination Emax (Hey (Ovarian Carcinoma)): 0.41
- combination Emax [1]: 0.97
- combination Emax [2]: 0.445
- combination Emax [3]: 0.209

Structure (SMILES): Cc1cc2ncnn2cc1Nc1ncc2c(n1)n(C1CCOCC1)c(=O)n2C [AZD7648] + CN(C)CCCOc1ccc(-c2ccc3ncc4c(c3c2)n(C2CCOCC2)c(=O)n4C)cn1 [AZD0156] (first compound max 10 µM, 7x7, partner max 1 µM)
- combination Emax (Hey (Ovarian Carcinoma)): 0.32
- combination Emax [1]: 0.321
- combination Emax [2]: 0.299
- combination Emax [3]: 0.167

Structure (SMILES): Cc1cc2ncnn2cc1Nc1ncc2c(n1)n(C1CCOCC1)c(=O)n2C [AZD7648] + COc1cc([C@@H]2c3cc4c(cc3[C@@H](O[C@@H]3O[C@@H]5CO[C@@H](C)O[C@H]5[C@H](O)[C@H]3O)[C@H]3COC(=O)[C@H]23)OCO4)cc(OC)c1O [Etoposide] (first compound max 10 µM, 7x7, partner max 10 µM)
- combination Emax [3]: 0.441

Structure (SMILES): Cc1cc2ncnn2cc1Nc1ncc2c(n1)n(C1CCOCC1)c(=O)n2C [AZD7648] + C[C@@H]1COCCN1C2=NC(=NC(=C2)C3(CC3)[S@](=N)(=O)C)C4=C5C=CNC5=NC=C4 [AZD6738] (first compound max 10 µM, 7x7, partner max 10 µM)
- combination Emax (Hey (Ovarian Carcinoma)): 0.689
- combination Emax [1]: 0.925
- combination Emax [2]: 0.383
- combination Emax [3]: 0.478

Structure (SMILES): Cc1cc2ncnn2cc1Nc1ncc2c(n1)n(C1CCOCC1)c(=O)n2C [AZD7648] + O=C(c1cc(Cc2n[nH]c(=O)c3ccccc23)ccc1F)N1CCN(C(=O)C2CC2)CC1 [Olaparib] (first compound max 10 µM, 7x7, partner max 10 µM)
- combination Emax (Hey (Ovarian Carcinoma)): 0.266
- combination Emax [1]: 0.315
- combination Emax [2]: 0.269
- combination Emax [3]: 0.171

Structure (SMILES): Cc1nc(Nc2ncc(C(=O)Nc3c(C)cccc3Cl)s2)cc(N2CCN(CCO)CC2)n1 [Dasatinib] + CC(=O)Nc1cccc(-n2c(=O)n(C3CC3)c(=O)c3c(Nc4ccc(I)cc4F)n(C)c(=O)c(C)c32)c1 [Trametinib] (first compound max 2 µM, 7x7, partner max 1 µM)
- combination Emax (Hey (Ovarian Carcinoma)): 0.858
- combination Emax [1]: 1
- combination Emax [2]: 0.172
- combination Emax [3]: 0.457

Structure (SMILES): COc1cc2ncnc(Nc3ccc(F)c(Cl)c3)c2cc1OCCCN1CCOCC1 [Gefitinib] + CC(C)n1c(=O)n(C)c2cnc3cc(F)c(-c4ccc(OCCCN5CCCCC5)nc4)cc3c21 [AZD1390] (first compound max 10 µM, 7x7, partner max 0.3 µM)
- combination Emax (Hey (Ovarian Carcinoma)): 0.0522
- combination Emax [1]: 0.301
- combination Emax [2]: 0.113
- combination Emax [3]: 0.167

Structure (SMILES): COc1cc2c(cc1OCCCCCOc1cc3c(cc1OC)C(=O)N1C=C(C)C[C@H]1C=N3)N=C[C@@H]1CC(C)=CN1C2=O [SG3199] + O=C(c1cc(Cc2n[nH]c(=O)c3ccccc23)ccc1F)N1CCN(C(=O)C2CC2)CC1 [Olaparib] (first compound max 0.001 µM, 7x7, partner max 10 µM)
- combination Emax (Hey (Ovarian Carcinoma)): 0.196
- combination Emax [1]: 0.337
- combination Emax [2]: 0.125
- combination Emax [3]: 0.104

Structure (SMILES): N#Cc1cnc(Nc2cc(NC[C@H]3CNCCO3)c(C(F)(F)F)cn2)cn1 [SRA737] + C=CCn1c(=O)c2cnc(Nc3ccc(N4CCN(C)CC4)cc3)nc2n1-c1cccc(C(C)(C)O)n1 [AZD1775] (first compound max 10 µM, partner max 1 µM)
- combination Emax [3]: 0.263

Structure (SMILES): N#Cc1cnc(Nc2cc(NC[C@H]3CNCCO3)c(C(F)(F)F)cn2)cn1 [SRA737] + CCc1c2c(nc3ccc(O)cc13)-c1cc3c(c(=O)n1C2)COC(=O)[C@]3(O)CC [SN-38] (first compound max 10 µM, 7x7, partner max 0.3 µM)
- combination Emax [3]: 0.628

Structure (SMILES): N#Cc1cnc(Nc2cc(NC[C@H]3CNCCO3)c(C(F)(F)F)cn2)cn1 [SRA737] + Nc1ccn([C@@H]2O[C@H](CO)[C@@H](O)C2(F)F)c(=O)n1 [Gemcitabine] (first compound max 10 µM, 7x7, partner max 0.3 µM)
- combination Emax [3]: 0.544

Structure (SMILES): N#Cc1cnc(Nc2cc(NC[C@H]3CNCCO3)c(C(F)(F)F)cn2)cn1 [SRA737] + O=c1[nH]cc(F)c(=O)[nH]1 [5-Fluorouracil] (first compound max 10 µM, 7x7, partner max 20 µM)
- combination Emax [3]: 0.439

Structure (SMILES): C[C@@H](c1ccc2nccn2c1)n1nnc2ncc(-c3cnn(C)c3)nc21 [Savolitinib] + CC1(C)CCC(CN2CCN(c3ccc(C(=O)NS(=O)(=O)c4ccc(NCC5CCOCC5)c([N+](=O)[O-])c4)c(Oc4cnc5[nH]ccc5c4)c3)CC2)=C(c2ccc(Cl)cc2)C1 [Venetoclax] (first compound max 1 µM, 7x7, partner max 1 µM)
- combination Emax (Hey (Ovarian Carcinoma)): 0.0566
- combination Emax [1]: 0.675
- combination Emax [2]: 0.629
- combination Emax [3]: 0.101

Structure (SMILES): C[C@@H](c1ccc2nccn2c1)n1nnc2ncc(-c3cnn(C)c3)nc21 [Savolitinib] + Cc1c2c(nn1C)CSCc1cc(n(C)n1)CSc1cc(c3ccccc3c1)OCCCc1c(C(=O)O)n(C)c3c-2c(Cl)ccc13 [AZD5991] (first compound max 1 µM, 7x7, partner max 1 µM)
- combination Emax (Hey (Ovarian Carcinoma)): 0.127
- combination Emax [1]: 0.264
- combination Emax [2]: 0.428
- combination Emax [3]: 0.132
